Paper PMC9743148 (Annals of oncology : official journal of the European …, 2020)

System: patients with advanced solid tumors
Assay: Treatment-emergent adverse events
Type: in vivo, human
[1] = Combined t.i.w. cohorts (n = 42)

SMILES: C=CC(=O)N1CC[C@H](n2nc(C#Cc3cc(OC)cc(OC)c3)c3c(N)ncnc32)C1 [futibatinib]
- AST increased TEAE, Grade 1 [1]: 1 (2) n (%)
- AST increased TEAE, Grade 2 [1]: 3 (7) n (%)
- AST increased TEAE, Grade 3 [1]: 0 (0) n (%)
- AST increased TEAE, Grade 4 [1]: 0 (0) n (%)
- Abdominal pain TEAE, Any grade [1]: 8 (19) n (%)
- Abdominal pain TEAE, Grade 1 [1]: 4 (10) n (%)
- Abdominal pain TEAE, Grade 2 [1]: 2 (5) n (%)
- Abdominal pain TEAE, Grade 3 [1]: 2 (5) n (%)
- Abdominal pain TEAE, Grade 4 [1]: 0 (0) n (%)
- Alopecia TEAE, Any grade [1]: 4 (10) n (%)
- Alopecia TEAE, Grade 1 [1]: 4 (10) n (%)
- Alopecia TEAE, Grade 2 [1]: 0 (0) n (%)
- Alopecia TEAE, Grade 3 [1]: 0 (0) n (%)
- Alopecia TEAE, Grade 4 [1]: 0 (0) n (%)
- Anemia TEAE, Any grade [1]: 13 (31) n (%)
- Anemia TEAE, Grade 1 [1]: 2 (5) n (%)
- Anemia TEAE, Grade 2 [1]: 8 (19) n (%)
- Anemia TEAE, Grade 3 [1]: 3 (7) n (%)
- Anemia TEAE, Grade 4 [1]: 0 (0) n (%)
- Any TEAE, Any grade [1]: 42 (100) n (%)
- Any TEAE, Grade 1 [1]: 3 (7) n (%)
- Any TEAE, Grade 2 [1]: 14 (33) n (%)
- Any TEAE, Grade 3 [1]: 20 (48) n (%)
- Any TEAE, Grade 4 [1]: 2 (5) n (%)
- Any treatment-related AE, Any grade [1]: 37 (88) n (%)
- Any treatment-related AE, Grade 1 [1]: 12 (29) n (%)
- Any treatment-related AE, Grade 2 [1]: 14 (33) n (%)
- Any treatment-related AE, Grade 3 [1]: 10 (24) n (%)
- Any treatment-related AE, Grade 4 [1]: 1 (2) n (%)
- Asthenia TEAE, Any grade [1]: 9 (21) n (%)
- Asthenia TEAE, Grade 1 [1]: 5 (12) n (%)
- Asthenia TEAE, Grade 2 [1]: 4 (10) n (%)
- Asthenia TEAE, Grade 3 [1]: 0 (0) n (%)
- Asthenia TEAE, Grade 4 [1]: 0 (0) n (%)
- Back pain TEAE, Any grade [1]: 3 (7) n (%)
- Back pain TEAE, Grade 1 [1]: 2 (5) n (%)
- Back pain TEAE, Grade 2 [1]: 1 (2) n (%)
- Back pain TEAE, Grade 3 [1]: 0 (0) n (%)
- Back pain TEAE, Grade 4 [1]: 0 (0) n (%)
- Constipation TEAE, Any grade [1]: 11 (26) n (%)
- Constipation TEAE, Grade 1 [1]: 10 (24) n (%)
- Constipation TEAE, Grade 2 [1]: 1 (2) n (%)
- Constipation TEAE, Grade 3 [1]: 0 (0) n (%)
- Constipation TEAE, Grade 4 [1]: 0 (0) n (%)
- Cough TEAE, Any grade [1]: 2 (5) n (%)
- Cough TEAE, Grade 1 [1]: 2 (5) n (%)
- Cough TEAE, Grade 2 [1]: 0 (0) n (%)
- Cough TEAE, Grade 3 [1]: 0 (0) n (%)
- Cough TEAE, Grade 4 [1]: 0 (0) n (%)
- Decreased appetite TEAE, Any grade [1]: 9 (21) n (%)
- Decreased appetite TEAE, Grade 1 [1]: 5 (12) n (%)
- Decreased appetite TEAE, Grade 2 [1]: 3 (7) n (%)
- Decreased appetite TEAE, Grade 3 [1]: 1 (2) n (%)
- Decreased appetite TEAE, Grade 4 [1]: 0 (0) n (%)
- Diarrhea TEAE, Any grade [1]: 17 (40) n (%)
- Diarrhea TEAE, Grade 1 [1]: 12 (29) n (%)
- Diarrhea TEAE, Grade 2 [1]: 5 (12) n (%)
- Diarrhea TEAE, Grade 3 [1]: 0 (0) n (%)
- Diarrhea TEAE, Grade 4 [1]: 0 (0) n (%)
- Dose reduction because of TEAE, Any grade [1]: 4 (10) n (%)
- Dose reduction because of TEAE, Grade 1 [1]: 0 (0) n (%)
- Dose reduction because of TEAE, Grade 2 [1]: 3 (7) n (%)
- Dose reduction because of TEAE, Grade 3 [1]: 1 (2) n (%)
- Dose reduction because of TEAE, Grade 4 [1]: 0 (0) n (%)
- Dosing delay/interruption because of TEAE, Any grade [1]: 21 (50) n (%)
- Dosing delay/interruption because of TEAE, Grade 1 [1]: 0 (0) n (%)
- Dosing delay/interruption because of TEAE, Grade 2 [1]: 6 (14) n (%)
- Dosing delay/interruption because of TEAE, Grade 3 [1]: 14 (33) n (%)
- Dosing delay/interruption because of TEAE, Grade 4 [1]: 1 (2) n (%)
- Dry eye TEAE, Any grade [1]: 2 (5) n (%)
- Dry eye TEAE, Grade 1 [1]: 2 (5) n (%)
- Dry eye TEAE, Grade 2 [1]: 0 (0) n (%)
- Dry eye TEAE, Grade 3 [1]: 0 (0) n (%)
- Dry eye TEAE, Grade 4 [1]: 0 (0) n (%)
- Dry mouth TEAE, Any grade [1]: 14 (33) n (%)
- Dry mouth TEAE, Grade 1 [1]: 13 (31) n (%)
- Dry mouth TEAE, Grade 2 [1]: 1 (2) n (%)
- Dry mouth TEAE, Grade 3 [1]: 0 (0) n (%)
- Dry mouth TEAE, Grade 4 [1]: 0 (0) n (%)
- Dry skin TEAE, Any grade [1]: 7 (17) n (%)
- Dry skin TEAE, Grade 1 [1]: 6 (14) n (%)
- Dry skin TEAE, Grade 2 [1]: 1 (2) n (%)
- Dry skin TEAE, Grade 3 [1]: 0 (0) n (%)
- Dry skin TEAE, Grade 4 [1]: 0 (0) n (%)
- Fatigue TEAE, Any grade [1]: 7 (17) n (%)
- Fatigue TEAE, Grade 1 [1]: 2 (5) n (%)
- Fatigue TEAE, Grade 2 [1]: 5 (12) n (%)
- Fatigue TEAE, Grade 3 [1]: 0 (0) n (%)
- Fatigue TEAE, Grade 4 [1]: 0 (0) n (%)
- Headache TEAE, Any grade [1]: 7 (17) n (%)
- Headache TEAE, Grade 1 [1]: 6 (14) n (%)
- Headache TEAE, Grade 2 [1]: 1 (2) n (%)
- Headache TEAE, Grade 3 [1]: 0 (0) n (%)
- Headache TEAE, Grade 4 [1]: 0 (0) n (%)
- Hypercalcemia TEAE, Any grade [1]: 5 (12) n (%)
- Hypercalcemia TEAE, Grade 1 [1]: 1 (2) n (%)
- Hypercalcemia TEAE, Grade 2 [1]: 1 (2) n (%)
- Hypercalcemia TEAE, Grade 3 [1]: 3 (7) n (%)
- Hypercalcemia TEAE, Grade 4 [1]: 0 (0) n (%)
- Hyperphosphatemia TEAE, Any grade [1]: 21 (50) n (%)
- Hyperphosphatemia TEAE, Grade 1 [1]: 7 (17) n (%)
- Hyperphosphatemia TEAE, Grade 2 [1]: 11 (26) n (%)
- Hyperphosphatemia TEAE, Grade 4 [1]: 0 (0) n (%)
- Hyperphosphatemia TEAE, grade 3 [1]: 3 (7) n (%)
- Hypomagnesemia TEAE, Any grade [1]: 5 (12) n (%)
- Hypomagnesemia TEAE, Grade 1 [1]: 4 (10) n (%)
- Hypomagnesemia TEAE, Grade 2 [1]: 1 (2) n (%)
- Hypomagnesemia TEAE, Grade 3 [1]: 0 (0) n (%)
- Hypomagnesemia TEAE, Grade 4 [1]: 0 (0) n (%)
- Hyponatremia TEAE, Any grade [1]: 5 (12) n (%)
- Hyponatremia TEAE, Grade 1 [1]: 1 (2) n (%)
- Hyponatremia TEAE, Grade 2 [1]: 0 (0) n (%)
- Hyponatremia TEAE, Grade 3 [1]: 4 (10) n (%)
- Hyponatremia TEAE, Grade 4 [1]: 0 (0) n (%)
- Nausea TEAE, Any grade [1]: 12 (29) n (%)
- Nausea TEAE, Grade 1 [1]: 11 (26) n (%)
- Nausea TEAE, Grade 2 [1]: 0 (0) n (%)
- Nausea TEAE, Grade 3 [1]: 1 (2) n (%)
- Nausea TEAE, Grade 4 [1]: 0 (0) n (%)
- Onycholysis TEAE, Any grade [1]: 5 (12) n (%)
- Onycholysis TEAE, Grade 1 [1]: 4 (10) n (%)
- Onycholysis TEAE, Grade 2 [1]: 1 (2) n (%)
- Onycholysis TEAE, Grade 3 [1]: 0 (0) n (%)
- Onycholysis TEAE, Grade 4 [1]: 0 (0) n (%)
- Pyrexia TEAE, Any grade [1]: 5 (12) n (%)
- Pyrexia TEAE, Grade 1 [1]: 4 (10) n (%)
- Pyrexia TEAE, Grade 2 [1]: 0 (0) n (%)
- Pyrexia TEAE, Grade 3 [1]: 1 (2) n (%)
- Pyrexia TEAE, Grade 4 [1]: 0 (0) n (%)
- Rash TEAE, Any grade [1]: 5 (12) n (%)
- Rash TEAE, Grade 1 [1]: 5 (12) n (%)
- Rash TEAE, Grade 2 [1]: 0 (0) n (%)
- Rash TEAE, Grade 3 [1]: 0 (0) n (%)
- Rash TEAE, Grade 4 [1]: 0 (0) n (%)
- Stomatitis TEAE, Any grade [1]: 5 (12) n (%)
- Stomatitis TEAE, Grade 1 [1]: 2 (5) n (%)
- Stomatitis TEAE, Grade 2 [1]: 1 (2) n (%)
- Stomatitis TEAE, Grade 3 [1]: 2 (5) n (%)
- Stomatitis TEAE, Grade 4 [1]: 0 (0) n (%)
- Treatment discontinuation because of TEAE, Any grade [1]: 1 (2) n (%)
- Treatment discontinuation because of TEAE, Grade 1 [1]: 0 (0) n (%)
- Treatment discontinuation because of TEAE, Grade 2 [1]: 0 (0) n (%)
- Treatment discontinuation because of TEAE, Grade 3 [1]: 1 (2) n (%)
- Treatment discontinuation because of TEAE, Grade 4 [1]: 0 (0) n (%)
- Urinary tract infection TEAE, Any grade [1]: 5 (12) n (%)
- Urinary tract infection TEAE, Grade 1 [1]: 0 (0) n (%)
- Urinary tract infection TEAE, Grade 2 [1]: 4 (10) n (%)
- Urinary tract infection TEAE, Grade 3 [1]: 1 (2) n (%)
- Urinary tract infection TEAE, Grade 4 [1]: 0 (0) n (%)
- Vomiting TEAE, Any grade [1]: 9 (21) n (%)
- Vomiting TEAE, Grade 1 [1]: 5 (12) n (%)
- Vomiting TEAE, Grade 2 [1]: 3 (7) n (%)
- Vomiting TEAE, Grade 3 [1]: 1 (2) n (%)
- Vomiting TEAE, Grade 4 [1]: 0 (0) n (%)
- Hyperphosphatemia TEAE, grade 3 (combined q.d. cohorts): 16%
- Hyperphosphatemia TEAE, any grade (combined q.d. cohorts, 30 of 44 patients): 68%
- Hyperphosphatemia TEAE, grade 3 (combined t.i.w. cohorts): 7%
- Hyperphosphatemia TEAE, any grade (combined t.i.w. cohorts, 21 of 42 patients): 50%
- Patients with grade ≥3 TEAEs (overall population): > 50%
- Grade 3 hyponatremia TEAE (overall population (n = 86)): 7%
- Hyperphosphatemia leading to dose reductions (overall population (n = 86)): 6%
- Hyperphosphatemia leading to dosing interruptions (overall population (n = 86)): 17%
- Patients with grade 3 TEAEs (overall population (n = 86)): 48%
- Patients with grade 4 TEAEs (overall population (n = 86)): 6%
- Patients with treatment-related grade 3 AEs (overall population (n = 86)): 30%
- TEAEs leading to treatment discontinuations (overall population (n = 86)): 3%
- Treatment-related deaths (overall population (n = 86)): No treatment-related deaths
